From US20240000751A1, “STABLE ORAL FORMULATION CONTAINING 1-(3-CYANO-1-ISOPROPYL-INDOL-5-YL)PYRAZOLE-4-CARBOXYLIC ACID” (LG CHEM, LTD., priority 2020, published 2024)

Assay: Stability of API and 1:1 API/excipient mixtures stored under accelerated conditions, residual assay of API by HPLC
Type: physicochemical
Conditions: mixture
Procedure: As disclosed in Table 1 below, after preparing a mixture by mixing API, 1-(3-cyano-1-isopropyl-indol-5-yl)pyrazol-4-carboxylic acid, with various types of excipients such as microcrystalline cellulose, the residual assay of API at the initial stage and after 1 month, 2 months, and 3 months storage, respectively, under accelerated conditions (40° C., 75% RH; relative humidity) were measured through the analysis method and process described below.
• HPLC analysis conditions are as follows: • Column: Inertsil ODS-2 (4.6×150 mm, 5 μm, GL Science) • Detector: 254 nm, UV • Flow Rate: […] • Injection Volume: […] • Column Temperature: 40° C. • Eluent • A: Acetonitril/Purified water/TFA(Trifluoroacetic acid)=40/60/0.1(v/v/v) • B: Acetonitril/Purified water/TFA=80/20/0.1(v/v/v)

residual assay of API, 3 Months (after 3 months storage under accelerated conditions (40° C., 75% RH)): 98.7%
residual assay of API, Initial (initial stage, accelerated conditions (40° C., 75% RH)): 98.7%
Structure (SMILES): CC(C)n1cc(C#N)c2cc(-n3cc(C(=O)O)cn3)ccc21 [Comparative Example 1, 1-(3-cyano-1-isopropyl-indol-5-yl)pyrazol-4-carboxylic acid]
